According to patent publication US20250311722A1, “IMPROVED BIOCIDE” (Purgos ApS, priority 2022, published 2025):
Several values for one entry are separate records, joined by “and”; a condition that tells them apart may be missing. Identical values can stand only once.

Legend:
[1] = test system: Pseudomonas aeruginosa, ATCC 15442; assay: EN 1276 quantitative suspension test, bactericidal activity; type: cell-based
Method: (§1) The test was carried out according to EN 1276, 2019: Chemical disinfectants and antiseptics-Quantitative suspension test for the evaluation of bactericidal activity of chemical disinfectants and antiseptics used in food, industrial, domestic, and institutional areas-Test method and requirements. […] The growth media TSB (Tryptic Soy Broth) was separately inoculated with a culture loop of the microorganisms. The cultures were incubated at 37° C. for 24 hours. Bovine Serum Albumin with a final concentration of 3 g/L Polysorbate 80 with a concentration of 30 g/L The used method was Dilution-neutralization method. 1 mL of interfering substance was pipetted into a tube and 1 mL of the test suspension was added and mixed. […] The solution was incubated at 20° C. for 5 min. and 60 min. respectively. […] After 5 min. of neutralization time 100 μL of the mixture was added to a petri-dish containing TSA media. Another 100 μL was added to a tube containing 900 μL 0.9% NaCl and a serial dilution to 10^-5 was made. The mixtures added to the agar plates were evenly distributed with a Drigalski-spatula. The agar plates were incubated at 37° C. for 24 hours. After incubation, the number of surviving bacteria (CFU) was counted. The test was performed in 3 replicates.

[2] = test system: Escherichia coli, ATCC 10536; assay: as above; type: cell-based
Method: as §1

[3] = test system: Staphylococcus aureus, ATCC 6538; assay: as above; type: cell-based; conditions: all tested contact times (5, 60 min) and concentrations (1.5%, 3%, 6%)
Method: as §1

[4] = test system: Pseudomonas aeruginosa, ATCC 10145; assay: PT6 screening, in-can preservation of acrylic paint (ATP, aerobic and anaerobic growth on agar plate); type: cell-based
Method: The microbial activity in relation to in-can preservation of paint was tested using three methods: ATP measurement, Aerobic growth on agar plate and Anaerobic growth on agar plate in low-air conditions. […] Furthermore, no significant dependence on concentration was shown in these specific tests. Specific about the ATP measurements: test and method developed by Luminultra. A sample is taken from the test paint at a given time and the total amount of ATP is measured. Total ATP amount are measured at Day 7 and 30. After every ATP measurement, streaking of test material on agar plates has been performed. Growth test in aerobic and anaerobic environment are running in 1 and 14 days, respectively. Test organism: Pseudomonas aeruginosa, ATCC 10145 [table] The commercial biocide used for the results listed in Table VIII is Vinkocide CMIK R. Acrylic paint is standard EN152 (modified without PT6 biocide). P. aeruginosa are inoculated in 200 μl concentration to paint sample size of 140 ml in a sterile “paint can-shape” container. Shark Solution candidate A and the commercial biocide are added to the standard paint and mixed in a shaker machine. Every matrix is tested in two replications (n=2) with an additional replication without inoculation of bacteria.

[5] = test system: selected typical species of contaminants; assay: Substitution of conventional biocides with NBDA in products, LuminUltra test against controls; type: cell-based
Source text: A test sample (T): In a known recipe for a product comprising one or more conventional biocide(s), said biocide(s) is replaced with NBDA (or another tert, amine according to the present invention).
A control sample (C): Product comprising one or more conventional biocide(s) produced following an established recipe.
A negative control sample (N): A further negative control may be provided by removing said conventional biocide(s) from the recipe, without addition of NBDA (or other biocides). Provision and test of the N-sample can be optional.
Samples, such as test-, control- and/or negative control samples are provided according to Example 3. To assess the effect of the biocide(s), microbial contamination is measured, such as according to Example 6, or other conventional methods known in the art.
In short, samples are exposed to microbial contamination (microbial stress test) e.g. by opening a lid and closing it for a defined period of time, or other operations, mimicking a conventional user situation. Alternatively, samples can be inoculated with defined quantities of microorganisms, such as one or more indicator microorganism.
The samples can be divided into different aliquots, and incubated for selected periods at one or more relevant temperatures, such as e.g. one or more of 4° C., room temperature (RT, usually 20° C., 22° C., or 25° C.), 30° C., 32° C., 37° C., 40° C., and/or 60° C.), simulating e.g. appropriate storage, processing and usage conditions.
ATP, such as intracellular ATP is measured using a commercially available system, such as provided by LumiUltra®, in particular a method using luminase (Aqua Tools, see details below).
In short, a buffering solution and Luminase enzyme are mixed. After daily ATP standard calibration, an aliquot, such as 1 ml of sample is transferred to an 1 ml extraction tube. After dilution in UltraLute resin, the total ATP (content can be established in the luminescence measuring device. 2) 1 ml sample is dissolved in LumiSolve stabilizing agent. […] For further details, see e.g. Aqua Tools (78300 Poissy, France) Quick reference guide QuenchGone21™ Speciality Test Kit QG21S-50/QG21St-100 2G.

[6] = test system: Enterococcus hierae, ATCC 10541; assay: EN 1276 quantitative suspension test, bactericidal activity; type: cell-based, Enterococcus hirae; conditions: all tested contact times (5, 60 min) and concentrations (1.5%, 3%, 6%)
Method: as §1

## CCCCN(CCO)CCO [NBDA, N-butyldiethanolamine]
[1]; 1.5%, contact time 5 min
  CFU/plate: >165 CFU/plate
  log10 reduction: <5 log10
[1]; 1.5%, contact time 60 min
  CFU/plate: >165 CFU/plate
  log10 reduction: <5 log10
[1]; 3.0%, contact time 5 min
  CFU/plate: >165 CFU/plate
  log10 reduction: <5 log10
[1]; 3.0%, contact time 60 min
  CFU/plate: >165 CFU/plate
  log10 reduction: <5 log10
[1]; 6.0%, contact time 5 min
  CFU/plate: >165 CFU/plate
  log10 reduction: <5 log10
[1]; 6.0%, contact time 60 min
  CFU/plate: 25 CFU/plate and 22 CFU/plate and 35 CFU/plate
[2]; 1.5%, contact time 5 min
  CFU/plate: >165 CFU/plate
  log10 reduction: <5 log10
[2]; 1.5%, contact time 60 min
  CFU/plate: >165 CFU/plate
  log10 reduction: <5 log10
[2]; 3.0%, contact time 5 min
  CFU/plate: >165 CFU/plate
  log10 reduction: <5 log10
[2]; 3.0%, contact time 60 min
  CFU/plate: >165 CFU/plate
  log10 reduction: <5 log10
[2]; 6.0%, contact time 5 min
  CFU/plate: >165 CFU/plate
  log10 reduction: <5 log10
[2]; 6.0%, contact time 60 min
  CFU/plate: 25 CFU/plate and 29 CFU/plate and 30 CFU/plate
[3]
  log changes of CFU: lower than 5 log units
[4]; 1, 2 and 5% NBDA
  anti-microbial potential in paint: reveal anti-microbial potentials
[4]; concentrations of 0.5%, 1%, 2%, and 5%
  effectiveness in in-can preservation of paints: effective against aerobic bacteria
[5]; SBR precoat composition for carpets, MIT/BIT substituted with 0.5% NBDA
  biocidal protection: same performance as the origin
[5]; Styrene-Butadiene-Rubber (SBR)-emulsion, MIT and/or BIT replaced, 32° C.
  biocidal effect: comparable and better than the normal biocide package
[5]; algae removing compound, benzalkonium chloride replaced with 1-5%, 32° C.
  biocidal effect: comparable or even surpassing benzalkonium chloride in function
[5]; circulating heat-transfer systems, benzalkonium chloride replaced with 1-5%, 32° C.
  biocidal effect: comparable to benzalkonium chloride
[5]; combination dispersions, emulsions, suspensions, 32° C.
  biocidal effect: comparable and better than the normal biocide package
[5]; disinfection compound for pipes, benzalkonium chloride replaced with 1-5%, 32° C.
  biocidal effect: comparable to benzalkonium chloride
[5]; food, preservatives substituted with comparable amounts of NBDA
  preservation effect: suitable preservation effect(s) as the beforementioned preservative(s)
[5]; hand cleanser, sodiumbenzoate, MIT and BIT replaced, 32° C.
  biocidal effect: comparable or even better than the normal biocide package
[5]; liquid dishwashing compound, MIT/BIT replaced with 0.01-1%, 32° C.
  biocidal effect: comparable to or even surpassing the conventional biocide
[5]; liquid disinfection compound, benzalkonium chloride replaced with 1-5%, 32° C.
  biocidal effect: comparable or even surpassing benzalkonium chloride in function
[5]; moisturizing crème, benzoate and commercial biocides replaced, 32° C.
  biocidal effect: comparable or even better than the normal biocide package
[5]; soap, sodiumbenzoate, MIT and BIT replaced, 32° C.
  biocidal effect: comparable or even better than the normal biocide package
[5]; stabilized suspension, MIT and BIT replaced, 32° C.
  biocidal effect: comparable and better than the normal biocide package
[5]; swimming pool water, chlorine compounds replaced, 32° C.
  biocidal effect: comparable or even better than chlorine based traditional solutions
[5]; toothpaste, benzoate (e.g. 0.5%) replaced with similar concentration
  biocidal effect: comparable or even better than benzoate
[5]; veterinary disinfection compound, benzalkonium chloride and/or glutaraldehyde replaced with 1-5%, 32° C.
  biocidal effect: comparable or even surpassing both benzalkonium chloride and glutaraldehyde in function
[5]; waterborne cooling compound, benzalkonium chloride replaced with 1-5%, 32° C.
  biocidal effect: comparable or surpassing benzalkonium chloride
[5]; watersystems for toilets, washing facilities, benzalkonium chloride replaced with 1-5%, 32° C.
  biocidal effect: comparable to benzalkonium chloride
[6]
  log changes of CFU: lower than 5 log units
